Source: the supplement of paper PMC4862054

Key:
Details in all cases: incubation time: 72 h
[1] = tested on: BT-474; assay: normalised viability (% of control), CellTiter-Blue; higher = more viable cells (about 100 = DMSO control)
Procedure: (§1)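 DSRT, CellTiter-Blue viability, 72 h incubation. Signal is normalised to DMSO and benzethonium chloride controls. Value is the normalised response at dose 3.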

[2] = tested on: CAL-148; assay: as above
Procedure: as §1

[3] = tested on: CAL-51; assay: as above
Procedure: as §1

[4] = tested on: CAL-85-1; assay: as above
Procedure: as §1

[5] = tested on: HCC1143; assay: as above
Procedure: as §1

[6] = tested on: HCC1599; assay: as above
Procedure: as §1

[7] = tested on: Hs578T; assay: as above
Procedure: as §1

[8] = tested on: MDA-MB-436; assay: as above
Procedure: as §1

[9] = tested on: MDA-MB-453; assay: as above
Procedure: as §1

[10] = tested on: MFM-223; assay: as above
Procedure: as §1

[11] = tested on: BT-474; assay: normalised response (% of control), CellTiter-Glo; higher = more viable cells (100 = DMSO, 0 = benzethonium chloride kill control)
Procedure: (§2)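 DSRT, 72 h incubation, CellTox Green / CellTiter-Glo readout. Signal is normalised to DMSO and benzethonium chloride controls. Value is the normalised response at the highest dose.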

[12] = tested on: BT-549; assay: as above
Procedure: as §2

[13] = tested on: CAL-120; assay: as above
Procedure: as §2

[14] = tested on: CAL-148; assay: as above
Procedure: as §2

[15] = tested on: CAL-51; assay: as above
Procedure: as §2

[16] = tested on: CAL-85-1; assay: as above
Procedure: as §2

[17] = tested on: DU-4475; assay: as above
Procedure: as §2

[18] = tested on: HCC1143; assay: as above
Procedure: as §2

[19] = tested on: HCC1599; assay: as above
Procedure: as §2

[20] = tested on: HCC1937; assay: as above
Procedure: as §2

[21] = tested on: HDQ-P1; assay: as above
Procedure: as §2

[22] = tested on: Hs578T; assay: as above
Procedure: as §2

[23] = tested on: MCF-10A; assay: as above
Procedure: as §2

[24] = tested on: MDA-MB-231; assay: as above
Procedure: as §2

[25] = tested on: MDA-MB-436; assay: as above
Procedure: as §2

[26] = tested on: MDA-MB-453; assay: as above
Procedure: as §2

[27] = tested on: MDA-MB-468; assay: as above
Procedure: as §2

[28] = tested on: MFM-223; assay: as above
Procedure: as §2

[29] = tested on: SK-BR-3; assay: as above
Procedure: as §2

Compound	normalised viability ([1]; 100 nM) [%]	normalised viability ([2]; 10 nM) [%]	normalised viability ([3]; 10 nM) [%]	normalised viability ([4]; 10 nM) [%]	normalised viability ([5]; 100 nM) [%]	normalised viability ([6]; 100 nM) [%]	normalised viability ([7]; 100 nM) [%]	normalised viability ([8]; 100 nM) [%]	normalised viability ([9]; 10 nM) [%]	normalised viability ([10]; 100 nM) [%]	other results
COc1cc(Nc2ncc3c(n2)-c2ccc(Cl)cc2C(c2c(F)cccc2OC)=NC3)ccc1C(=O)O [MLN8237]	72.6	94.7	98.2	95	71.2	97.7	51.3	91.5	84.3	77.7	
C=CCNC1=C2C[C@@H](C)C[C@H](OC)[C@H](O)[C@@H](C)/C=C(\C)[C@H](OC(N)=O)[C@@H](OC)/C=C\C=C(/C)C(=O)NC(=CC1=O)C2=O [Tanespimycin]	35.3	94	118	98.4	33.4	61.2	50.2	26.3	81	29.2	
Cc1ccc(F)c(NC(=O)Nc2ccc(-c3cccc4[nH]nc(N)c34)cc2)c1 [Linifanib]											normalised viability ([1]; 10 nM): 111%; normalised viability ([2]; 1 nM): 104%; normalised viability ([3]; 1 nM): 102%; normalised viability ([4]; 1 nM): 99%; normalised viability ([5]; 10 nM): 89.4%; normalised viability ([6]; 10 nM): 108%; normalised viability ([7]; 10 nM): 82.9%; normalised viability ([8]; 10 nM): 124%; normalised viability ([9]; 1 nM): 106%; normalised viability ([10]; 10 nM): 102%
S=c1[nH]cnc2nc[nH]c12 [Mercaptopurine]	111	94.1	108	93.9	92	93.5	113	121	113	93.6	
CN(C)C/C=C/C(=O)Nc1cc2c(Nc3ccc(F)c(Cl)c3)ncnc2cc1O[C@H]1CCOC1 [Afatinib]	34.8	79.9	107	84.7	71	84.6	84.2	84.7	81.4	84.8	
CO[C@H]1C[C@@H]2CC[C@@H](C)[C@@](O)(O2)C(=O)C(=O)N2CCCC[C@H]2C(=O)O[C@H]([C@H](C)C[C@@H]2CC[C@@H](OC(=O)C(C)(CO)CO)[C@H](OC)C2)CC(=O)[C@H](C)/C=C(\C)[C@@H](O)[C@@H](OC)C(=O)[C@H](C)C[C@H](C)/C=C/C=C/C=C/1C [Temsirolimus]											normalised viability ([1]; 10 nM): 69.3%; normalised viability ([2]; 1 nM): 54.5%; normalised viability ([3]; 1 nM): 73.9%; normalised viability ([4]; 1 nM): 65.7%; normalised viability ([5]; 10 nM): 77.1%; normalised viability ([6]; 10 nM): 90.8%; normalised viability ([7]; 10 nM): 50.2%; normalised viability ([8]; 10 nM): 85.8%; normalised viability ([9]; 1 nM): 32%; normalised viability ([10]; 10 nM): 49.8%
C[C@]1(c2nc3c(C(N)=O)cccc3[nH]2)CCCN1 [Veliparib]	101	89.1	113	90.8	75.6	116	76.7	84.1	99.4	89.9	
CC[C@]1(O)C[C@@H]2CN(CCc3c([nH]c4ccccc34)[C@@](C(=O)OC)(c3cc4c(cc3OC)N(C)[C@H]3[C@@](O)(C(=O)OC)[C@H](OC(C)=O)[C@]5(CC)C=CCN6CC[C@]43[C@@H]65)C2)C1 [Vinblastine]											normalised viability ([1]; 10 nM): 49.7%; normalised viability ([2]; 1 nM): 107%; normalised viability ([3]; 1 nM): 114%; normalised viability ([4]; 1 nM): 101%; normalised viability ([5]; 10 nM): 40.6%; normalised viability ([6]; 10 nM): 107%; normalised viability ([7]; 10 nM): 14.7%; normalised viability ([8]; 10 nM): 51.5%; normalised viability ([9]; 1 nM): 98.4%; normalised viability ([10]; 10 nM): 76.7%
Nc1nc(Cl)nc2c1ncn2[C@H]1C[C@H](O)[C@@H](CO)O1 [Cladribine]											normalised viability ([1]; 10 nM): 118%; normalised viability ([2]; 1 nM): 97.4%; normalised viability ([3]; 1 nM): 114%; normalised viability ([4]; 1 nM): 107%; normalised viability ([5]; 10 nM): 85.5%; normalised viability ([6]; 10 nM): 105%; normalised viability ([7]; 10 nM): 98.4%; normalised viability ([8]; 10 nM): 96.9%; normalised viability ([9]; 1 nM): 112%; normalised viability ([10]; 10 nM): 85%
Cc1c2oc3c(C)ccc(C(=O)N[C@@H]4C(=O)N[C@H](C(C)C)C(=O)N5CCC[C@H]5C(=O)N(C)CC(=O)N(C)[C@@H](C(C)C)C(=O)O[C@@H]4C)c3nc-2c(C(=O)N[C@@H]2C(=O)N[C@H](C(C)C)C(=O)N3CCC[C@H]3C(=O)N(C)CC(=O)N(C)[C@@H](C(C)C)C(=O)O[C@@H]2C)c(N)c1=O [Dactinomycin]											normalised viability ([1]; 10 nM): 73.5%; normalised viability ([2]; 1 nM): 46.5%; normalised viability ([3]; 1 nM): 77%; normalised viability ([4]; 1 nM): 50.3%; normalised viability ([5]; 10 nM): 46.5%; normalised viability ([6]; 10 nM): 49.3%; normalised viability ([7]; 10 nM): 23.3%; normalised viability ([8]; 10 nM): 46.4%; normalised viability ([9]; 1 nM): 49.7%; normalised viability ([10]; 10 nM): 67.5%
COc1cccc2c1C(=O)c1c(O)c3c(c(O)c1C2=O)C[C@@](O)(C(=O)CO)C[C@@H]3O[C@H]1C[C@H](N)[C@H](O)[C@H](C)O1 [Doxorubicin]											normalised viability ([1]; 10 nM): 95.5%; normalised viability ([2]; 1 nM): 96.6%; normalised viability ([3]; 1 nM): 105%; normalised viability ([4]; 1 nM): 95.7%; normalised viability ([5]; 10 nM): 83.4%; normalised viability ([6]; 10 nM): 102%; normalised viability ([7]; 10 nM): 99.5%; normalised viability ([8]; 10 nM): 92.4%; normalised viability ([9]; 1 nM): 99.1%; normalised viability ([10]; 10 nM): 89.4%
Clc1ccc(C(c2ccccc2Cl)C(Cl)Cl)cc1 (centres undefined) [Mitotane]	127	93.1	112	99.9	89.6	107	99.8	105	102	93.9	
N#CC[C@H](C1CCCC1)n1cc(-c2ncnc3[nH]ccc23)cn1 [Ruxolitinib]	107	102	84.9	96.4	107	99.3	79.2	94.5	93	93.2	
CN1CC[C@H](c2c(O)cc(O)c3c(=O)cc(-c4ccccc4Cl)oc23)[C@H](O)C1 [Alvocidib]	96.4	85.4	103	93.8	69.7	82.4	51.5	99.7	98.1	76.3	
Nc1ccn([C@@H]2O[C@H](CO)[C@@H](O)[C@@H]2O)c(=O)n1 [Cytarabine]	101	86.6	94.4	110	86	110	65.1	91.9	109	103	
COc1cccc2cc(-c3nc([C@H]4CC[C@H](C(=O)O)CC4)n4ncnc(N)c34)[nH]c12 [OSI-027]	95.1	92.6	95.4	92.8	119	88.9	84.1	74.1	80.9	73.7	
C=CC[C@@H]1/C=C(\C)C[C@H](C)C[C@H](OC)[C@H]2O[C@@](O)(C(=O)C(=O)N3CCCC[C@H]3C(=O)O[C@H](/C(C)=C/[C@@H]3CC[C@@H](O)[C@H](OC)C3)[C@H](C)[C@@H](O)CC1=O)[C@H](C)C[C@@H]2OC [Tacrolimus]	113	102	101	101	110	123	109	108	112	99.2	
OC[C@H]1O[C@@H](n2cnc3c2N=CNC[C@H]3O)C[C@@H]1O [Pentostatin]	109	111	88.4	103	112	97.6	91.5	99.1	104	95.8	
Clc1ccc(C(c2ccccc2Cl)C(Cl)Cl)cc1 (centres undefined) [Mitotane] (10000 nM)											normalised response [11]: 88.2%; normalised response [12]: 95.6%; normalised response [13]: 99.2%; normalised response [14]: 99.1%; normalised response [15]: 64.2%; normalised response [16]: 97%; normalised response [17]: 95.9%; normalised response [18]: 98.7%; normalised response [19]: 113%; normalised response [20]: 94.9%; normalised response [21]: 99.8%; normalised response [22]: 102%; normalised response [23]: 102%; normalised response [24]: 94.9%; normalised response [25]: 97.4%; normalised response [26]: 94.9%; normalised response [27]: 96.2%; normalised response [28]: 97%; normalised response [29]: 98.7%
CN1CCC(COc2cnc(-c3cccc(Cn4nc(-c5cccc(C#N)c5)ccc4=O)c3)nc2)CC1	102	79.1	92.9	94.4	109	116	76.3	92.3	89.3	96.9	
CS(=O)(=O)c1ccc(C(=O)Nc2ccc(Cl)c(-c3ccccn3)c2)c(Cl)c1 [Vismodegib]	101	96.8	103	114	87.7	86.2	80.1	85.6	108	104	
